In PubChem BioAssay (NCI):
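Grown in 96-well plates, cells were treated for 48 hours with each compound at five concentrations. Insufficient inhibition: endpoint recorded as highest concentration tested. GI50 marks 50% less growth. TGI marks complete inhibition of growth.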

Assays:
Assay in all cases: inhibition of tumour cell growth, NCI panel, 48 h
786-0 renal = test system: 786-0 renal
A498 renal = test system: A498 renal
A549 NSCLC = test system: A549 NSCLC
ACHN renal = test system: ACHN renal
CAKI-1 renal = test system: CAKI-1 renal
CCRF-CEM leukemia = test system: CCRF-CEM leukemia
COLO 205 colon = test system: COLO 205 colon
DU-145 prostate = test system: DU-145 prostate
EKVX NSCLC = test system: EKVX NSCLC
HCC-2998 colon = test system: HCC-2998 colon
HCT-116 colon = test system: HCT-116 colon
HCT-15 colon = test system: HCT-15 colon
HL-60(TB) leukemia = test system: HL-60(TB) leukemia
HOP-62 NSCLC = test system: HOP-62 NSCLC
HOP-92 NSCLC = test system: HOP-92 NSCLC
HS 578T breast = test system: HS 578T breast
HT29 colon = test system: HT29 colon
IGROV1 ovarian = test system: IGROV1 ovarian
K-562 leukemia = test system: K-562 leukemia
KM12 colon = test system: KM12 colon
LOX IMVI melanoma = test system: LOX IMVI melanoma
M14 melanoma = test system: M14 melanoma
MALME-3M melanoma = test system: MALME-3M melanoma
MCF7 breast = test system: MCF7 breast
MDA-MB-231 breast = test system: MDA-MB-231 breast
MDA-MB-435 = test system: MDA-MB-435
MOLT-4 leukemia = test system: MOLT-4 leukemia
NCI-H23 lung = test system: NCI-H23 lung
NCI-H460 lung = test system: NCI-H460 lung
NCI-H522 lung = test system: NCI-H522 lung
NCI/ADR-RES ovarian = test system: NCI/ADR-RES ovarian
OVCAR-3 ovarian = test system: OVCAR-3 ovarian
OVCAR-4 ovarian = test system: OVCAR-4 ovarian
OVCAR-5 ovarian = test system: OVCAR-5 ovarian
OVCAR-8 ovarian = test system: OVCAR-8 ovarian
PC-3 prostate = test system: PC-3 prostate
RPMI-8226 leukemia = test system: RPMI-8226 leukemia
RXF 393 renal = test system: RXF 393 renal
SF-268 CNS = test system: SF-268 CNS
SF-295 CNS = test system: SF-295 CNS
SF-539 CNS = test system: SF-539 CNS
SK-MEL-28 melanoma = test system: SK-MEL-28 melanoma
SK-MEL-5 melanoma = test system: SK-MEL-5 melanoma
SK-OV-3 ovarian = test system: SK-OV-3 ovarian
SN12C renal = test system: SN12C renal
SNB-19 CNS = test system: SNB-19 CNS
SNB-75 CNS = test system: SNB-75 CNS
SR leukemia = test system: SR leukemia
SW-620 colon = test system: SW-620 colon
T-47D breast = test system: T-47D breast
TK-10 renal = test system: TK-10 renal
U251 CNS = test system: U251 CNS
UACC-257 melanoma = test system: UACC-257 melanoma
UACC-62 melanoma = test system: UACC-62 melanoma
UO-31 renal = test system: UO-31 renal

`Cc1nc(N)nc2c1CCC(O)S2` (stereo not given) was tested, and the GI50 (786-0 renal) was 10.7 µM, the TGI (786-0 renal) was 24.5 µM and the GI50 (A498 renal) was 17.7 µM. For the same compound, the TGI (A498 renal) was 93.1 µM, the GI50 (A549 NSCLC) was 19.3 µM and the TGI (A549 NSCLC) was 78.2 µM. It also gave a GI50 (ACHN renal) of 22 µM, a TGI (ACHN renal) of over 100 µM and a GI50 (CAKI-1 renal) of 33.7 µM. It also gave a TGI (CAKI-1 renal) of over 100 µM, a GI50 (CCRF-CEM leukemia) of 4.29 µM and a TGI (CCRF-CEM leukemia) of 69.1 µM. For the same compound, the GI50 (COLO 205 colon) was 5.31 µM, the TGI (COLO 205 colon) was 16.7 µM and the GI50 (DU-145 prostate) was 3.5 µM. It also gave a TGI (DU-145 prostate) of 12.2 µM, a GI50 (EKVX NSCLC) of 24.8 µM and a TGI (EKVX NSCLC) of 93.2 µM. The GI50 (HCC-2998 colon) was 9.46 µM, the TGI (HCC-2998 colon) was 22.2 µM and the GI50 (HCT-116 colon) was 2.39 µM. The TGI (HCT-116 colon) was 6.04 µM, the GI50 (HCT-15 colon) was 26.3 µM and the TGI (HCT-15 colon) was over 100 µM. The GI50 (HL-60(TB) leukemia) was 11.4 µM, the TGI (HL-60(TB) leukemia) was 33 µM and the GI50 (HOP-62 NSCLC) was 5.44 µM. For the same compound, the TGI (HOP-62 NSCLC) was 18.5 µM, the GI50 (HOP-92 NSCLC) was 2.54 µM and the TGI (HOP-92 NSCLC) was 12.3 µM. It also gave a GI50 (HS 578T breast) of 10.7 µM, a TGI (HS 578T breast) of over 100 µM and a GI50 (HT29 colon) of 4.24 µM. The TGI (HT29 colon) was 17.3 µM, the GI50 (IGROV1 ovarian) was 4.67 µM and the TGI (IGROV1 ovarian) was 17.9 µM. The GI50 (K-562 leukemia) was 5.18 µM, the TGI (K-562 leukemia) was over 100 µM and the GI50 (KM12 colon) was 5.46 µM. It also gave a TGI (KM12 colon) of 19.6 µM, a GI50 (LOX IMVI melanoma) of 10.4 µM and a TGI (LOX IMVI melanoma) of 24.5 µM. It also gave a GI50 (M14 melanoma) of 8.44 µM, a TGI (M14 melanoma) of 31.6 µM and a GI50 (MALME-3M melanoma) of 11.3 µM. It also gave a TGI (MALME-3M melanoma) of 39.4 µM, a GI50 (MCF7 breast) of 3.02 µM and a TGI (MCF7 breast) of 10.4 µM. It also gave a GI50 (MDA-MB-231 breast) of 10.2 µM, a TGI (MDA-MB-231 breast) of 32.8 µM and a GI50 (MDA-MB-435) of 4.51 µM. It also gave a TGI (MDA-MB-435) of 18.7 µM, a GI50 (MOLT-4 leukemia) of 2.91 µM and a TGI (MOLT-4 leukemia) of 8.36 µM. The GI50 (NCI-H23 lung) was 3.66 µM, the TGI (NCI-H23 lung) was 17.2 µM and the GI50 (NCI-H460 lung) was 3.86 µM. The TGI (NCI-H460 lung) was 15.3 µM, the GI50 (NCI-H522 lung) was 17 µM and the TGI (NCI-H522 lung) was 34 µM. The GI50 (NCI/ADR-RES ovarian) was over 100 µM, the TGI (NCI/ADR-RES ovarian) was over 100 µM and the GI50 (OVCAR-3 ovarian) was 2.76 µM. It also gave a TGI (OVCAR-3 ovarian) of 7.7 µM, a GI50 (OVCAR-4 ovarian) of 3.26 µM and a TGI (OVCAR-4 ovarian) of 14.2 µM. The GI50 (OVCAR-5 ovarian) was 20.7 µM, the TGI (OVCAR-5 ovarian) was 74.3 µM and the GI50 (OVCAR-8 ovarian) was 3.73 µM. It also gave a TGI (OVCAR-8 ovarian) of 24 µM, a GI50 (PC-3 prostate) of 3.52 µM and a TGI (PC-3 prostate) of 44.7 µM. It also gave a GI50 (RPMI-8226 leukemia) of 21.3 µM, a TGI (RPMI-8226 leukemia) of over 100 µM and a GI50 (RXF 393 renal) of 5.4 µM. The TGI (RXF 393 renal) was 27 µM, the GI50 (SF-268 CNS) was 4.84 µM and the TGI (SF-268 CNS) was 25.6 µM. It also gave a GI50 (SF-295 CNS) of 14.8 µM, a TGI (SF-295 CNS) of 44.3 µM and a GI50 (SF-539 CNS) of 12.3 µM. The TGI (SF-539 CNS) was 27.9 µM, the GI50 (SK-MEL-28 melanoma) was 6.11 µM and the TGI (SK-MEL-28 melanoma) was 28.9 µM. The GI50 (SK-MEL-5 melanoma) was 12.5 µM, the TGI (SK-MEL-5 melanoma) was 26.3 µM and the GI50 (SK-OV-3 ovarian) was 11.3 µM. For the same compound, the TGI (SK-OV-3 ovarian) was 25.6 µM, the GI50 (SN12C renal) was 7.81 µM and the TGI (SN12C renal) was 56.2 µM. For the same compound, the GI50 (SNB-19 CNS) was 6.43 µM, the TGI (SNB-19 CNS) was 41.1 µM and the GI50 (SNB-75 CNS) was 11.2 µM. The TGI (SNB-75 CNS) was 39.8 µM, the GI50 (SR leukemia) was 4.21 µM and the TGI (SR leukemia) was over 100 µM. It also gave a GI50 (SW-620 colon) of 3.64 µM, a TGI (SW-620 colon) of 14.1 µM and a GI50 (T-47D breast) of 5.25 µM. For the same compound, the TGI (T-47D breast) was 30.2 µM, the GI50 (TK-10 renal) was 32.1 µM and the TGI (TK-10 renal) was over 100 µM. It also gave a GI50 (U251 CNS) of 3.3 µM, a TGI (U251 CNS) of 11.5 µM and a GI50 (UACC-257 melanoma) of 12.9 µM. For the same compound, the TGI (UACC-257 melanoma) was 47.1 µM, the GI50 (UACC-62 melanoma) was 11.3 µM and the TGI (UACC-62 melanoma) was 25.8 µM. For the same compound, the GI50 (UO-31 renal) was 39.7 µM and the TGI (UO-31 renal) was over 100 µM.
